These results are taken from article PMC4155405 (Nature communications, 2014).

Structures are written as SMILES. Like-named read-outs stand apart in the source and are kept apart here.

The subject of data set [1] is recombinant Wuhan95 (H3N2) PB1-V43I virus. Format: cell-based, influenza A virus A/Wuhan/359/95 (H3N2).
The subject of data set [2] is Wuhan95 (H3N2) PB1-V43I virus. Format: cell-based, influenza A virus A/Wuhan/359/95 (H3N2).
In data set [3] the test system is recombinant virus Wuhan95 (H3N2). Type of data set: cell-based, influenza A virus A/Wuhan/359/95 (H3N2).
In data set [4] the test system is Wuhan95 (H3N2) wild-type virus. Format: cell-based, influenza A virus A/Wuhan/359/95 (H3N2).
The nature of the next data set: in vitro. Conditions: dog.

As to `NC(=O)c1nc(F)c[nH]c1=O` [favipiravir], in data set [1], the “fold increase in EC50, PB1-V43I mutant versus wild-type H3N2 virus” value is 2.24 fold. Also, in data set [1] (read-out: EC50 (favipiravir, virus titre in MDCK cells)), the EC50 (as a rule, the midpoint of the concentration-response curve) amounted to 24.6 µM.

As to `NC(=O)c1ncn([C@@H]2O[C@H](CO)[C@@H](O)[C@H]2O)n1` [ribavirin, 1-[(2R,3R,4S,5R)-3,4-dihydroxy-5-(hydroxymethyl)oxolan-2-yl]-1H-1,2,4-triazole-3-carboxamide], in data set [1], the “fold higher virus titre of PB1-V43I virus compared to wild-type recombinant Wuhan95 virus” value is 10.8 fold. For the same compound, the half-maximal effective concentration (EC50) in data set [1] (read-out: EC50 (ribavirin, virus titre in MDCK cells)) was found to be 73.5 µM. The entries for the “mutational frequency in the HA gene” value in data set [2] and in data set [4] were 4.08 mutations per 10^4 nucleotides and 5.53 mutations per 10^4 nucleotides, respectively. Moreover, the genomic mutation frequency in data set [3] is 15.74 per 10^4 nucleotide sequenced. Moreover, the “fold higher mutational frequency of wild-type virus than PB1-V43I virus” value in data set [4] was determined as 1.36 fold. In “in vitro”, this compound registered a CC50 of 352 ± 0.04 µM.

In the data set “in vitro”, `Nc1nc2c(ncn2[C@@H]2O[C@H](CO)[C@@H](O)[C@H]2O)c(=O)[nH]1` [guanosine] gave a CC50 of 122 ± 0.11 µM.
